Patent US12297296B2, “Nano small peptide and its use in preparation of drugs for treating and preventing fundus vascular diseases” (FUTU Biotech Co., Ltd., priority 2021, dated 2025)
Where a SMILES comes first, the peptide text is derived from it. [ ]: non-standard residue; d: D form. The star is where a group is joined. ξ: configuration not given here. Palmitoyl = CCCCCCCCCCCCCCCC(=O)*; ξF = NC(Cc1ccccc1)C(=O)O

Assays:
[1] = DLS particle size and zeta potential of nanoparticles; type: physicochemical; conditions: zeta sizer, 25° C.
Description: First, FG and FH nanoparticle solutions with a concentration of 20 μM were prepared as follows. 0.01 mmol of FG (or FH) was weighed and dissolved in 1 mL of DMSO solution, and then diluted into 5 folds to a concentration of 2 mM, thus obtaining mother solution A. 10 μL of mother solution A was quickly added to 1 mL of water, and the resulting solution was then vortexed for 30 s to obtain a nanoparticle solution. Second, samples were made. 10 ul of FG (or FH) solution was added dropwise onto a copper mesh for 5 min, and the excess solution was removed with filter paper. 10 μL of uranyl acetate stain was added dropwise for 5 min, and the excess stain was removed with filter paper. Washing with 10 μl of deionized water was carried out once. The samples were dried in vacuum overnight. Finally, transmission electron microscopy observations were performed on an HT-7700 transmission electron microscope (Hitachi, Tokyo, Japan). Scale bar was 200 nm.
The particle size and zeta potential of FH and FG nanoparticles were measured with a zeta sizer (Nano ZZ90, Malvern, UK) at 25° C.

OIR model mice [2] = assay: Fundus angiogenesis in OIR model, Isolectin B4 confocal detection; type: in vivo, mouse; conditions: for percentage of abnormal blood vessels in the total retinal area (proportion of new blood vessels): 2 nmol injected into the vitreous on day 12, read on day 17
Description: Treatment group (OIR): After giving birth, 3-4 month old C57BL/6 mother mice were placed in an oxygen chamber with 75% oxygen together with 7 day old young mice, and the young mice and the mother mice were taken out on the 12th day of birth of the young mice. Immediately after the young mice were anesthetized, 2 nmol of FH, 2 nmol of FG, and 1 μg of Sema4D neutralizing antibody (BMA-12) (BMA-12, i.e., anti-Sema4D) were injected into the vitreous, and an equal volume of DMSO was used as a control. The young mice were then further raised in normal air for 5 days; the young mice were anesthetized on the 17th day of birth, and after cardiac perfusion with normal saline, the eyeballs were separated and then fixed, stained with Isolectin B4 overnight at 4° C., flatly spread on a glass slide, and photographed.
Control group (Normal): Young mice, grown with normoxia, were anesthetized on the 17th day of birth. After cardiac perfusion with normal saline, the eyeballs were taken out, and the retinas were peeled off and then fixed with 4% paraformaldehyde, stained with Isolectin B4 at 4° C. overnight, flatly spread on a glass slide, and photographed.
The results are shown in A in FIGS. 4A and 4B. Laser confocal was carried out to detect retinal angiogenesis, and ImageJ was carried out to calculate the ratio of retinal neovascularization clusters to the entire retinal area, that is, the proportion of new blood vessels. […] It can be seen from FIG. 4A that the treatment effect of FH is the best.

OIR model mice [3] = assay: Evans blue leakage test, fundus vascular leakage; type: in vivo, mouse; conditions: 2 nmol intravitreal
[4] = tested on: primary mouse brain microvascular endothelial cells; assay: Endothelial cell migration (transwell experiment); type: cell-based; conditions: 20 μM, 24 h; for sSema4D-induced endothelial cell migration: sSema4D 1600 ng/mL
Description: The primary mouse brain microvascular endothelial cells were starved with 0.5% ECM for 4 to 6 h. The mouse brain microvascular endothelial cells were seeded in the upper layer of a 24-well transwell chamber (8 μm). 1% ECM medium containing FH (20 μM), FG (20 μM), and Sema4D neutralizing antibody (BMA-12) (2 μg/μL) (the concentration of sSema4D in the medium is 1600 ng/mL) was added to the lower chamber, and an equal volume of DMSO was added as control. The cells were incubated in a 5% CO2 incubator at 37° C. for 24 h. 24 h later, the cells on the bottom of the chamber were fixed with 4% paraformaldehyde and stained with crystal violet, and the endothelial cells that penetrated to the bottom of the chamber were counted under a microscope.

[5] = In vivo imaging of small animals, entry into vitreous humor; design: species or system mouse; conditions: eye drops (10 μL, 20 μM, three times at 1 h intervals) and vitreous injection (1 μl, 20 μM)
Description: 10 μL of FH and FG eye drops (with the concentration of 20 μM, the solvent therein was artificial tears) were instilled on the eyeball surface of mice (8-week-old C57 male mice), once at an interval of 1 h. One hour after the third eye drop, the mice were anesthetized to have cardiac perfusion, the eyeballs of the mice were taken out, the connective tissue on the eye surface was trimmed, and the eyeballs were washed with PBS solution for several times to remove the nano eye drops from the surface of the eyeballs. The eyeball was placed in a small animal imager (at emission wavelength of 535 nm and excitation wavelength of 490 nm) for image acquisition.
Mice (8-week-old C57 male mice) were anesthetized with 4.3% chloral hydrate (0.01 ml/g), and antibiotic eye drops (levofloxacin eye drops), ocular surface anesthetics (Obucaine hydrochloride eye drops) were instilled before the surgery. The head position of the mouse was adjusted to keep the eyeball at the level of the corneal limbus. A small incision was made 1 mm behind the corneal limbus with an insulin injection needle, and 1 μl of nanomedicine FH (20 μM, FG (20 μM) or solvent was injected into the vitreous cavity along the small incision with a Hamilton 33 G syringe); the needle tip entered vertically and then tilted, and after pushing, the needle was retained for 0.5 to 1 min, and the needle was then pulled out quickly. […]

sSema4D = biological target: T1, sSema4D (Mus musculus, UniProt O09126); assay: sSema4D concentration in endothelial cell culture supernatant (ELISA); type: cell-based; design: the free Sema4D protein after enzyme cleavage of Sema4D, that is, the sSema4D protein purchased from R&D Systems Company; purchased R&D Systems; conditions: endothelial cells; for sSema4D concentration over the time course: 20 μM, 12, 24, 36, and 48 h; for sSema4D concentration: sSema4D 1600 ng/mL, peptide 20 μM, antibody 2 μg/μL
T1 sequence (O09126 24-733 limits assumed): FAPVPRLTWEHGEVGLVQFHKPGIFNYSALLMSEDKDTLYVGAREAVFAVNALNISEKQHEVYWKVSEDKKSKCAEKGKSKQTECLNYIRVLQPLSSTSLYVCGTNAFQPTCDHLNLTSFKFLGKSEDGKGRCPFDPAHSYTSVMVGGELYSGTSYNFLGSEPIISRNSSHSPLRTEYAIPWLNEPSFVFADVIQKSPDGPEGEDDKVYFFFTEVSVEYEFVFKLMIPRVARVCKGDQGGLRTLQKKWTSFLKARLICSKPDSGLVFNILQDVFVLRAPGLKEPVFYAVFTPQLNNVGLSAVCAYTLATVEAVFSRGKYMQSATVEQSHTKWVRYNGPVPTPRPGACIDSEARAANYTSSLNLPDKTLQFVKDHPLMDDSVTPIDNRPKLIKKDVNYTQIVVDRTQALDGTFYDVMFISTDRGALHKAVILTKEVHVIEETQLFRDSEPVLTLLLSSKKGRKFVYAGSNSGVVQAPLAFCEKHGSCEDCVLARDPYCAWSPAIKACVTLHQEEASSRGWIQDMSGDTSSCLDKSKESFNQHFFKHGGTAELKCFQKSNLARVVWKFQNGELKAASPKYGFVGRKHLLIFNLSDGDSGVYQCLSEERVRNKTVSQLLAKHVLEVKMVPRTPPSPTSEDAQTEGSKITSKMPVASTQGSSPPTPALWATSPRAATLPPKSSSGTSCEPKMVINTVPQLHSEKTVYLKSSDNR
Description: Endothelial cells were uniformly seeded in 6-well cell culture plates and cultured in a 5% CO2 incubator at 37° C. for 24 h. The nano small peptides FH, FG, DMSO, and Sema4D neutralizing antibody (BMA-12) were added to the medium (the concentration of sSema4D in the medium was 1600 ng/mL) to ensure that the final concentration of FH and FG was 20 μM, and the final concentration of the sSema4D neutralizing antibody (BMA-12) was 2 μg/μL, an equal volume of DMSO was then added as a control, and the culture plates were cultured in an incubator for 12, 24, 36, and 48 h, respectively. The cell culture medium was then collected and centrifuged. The supernatant was taken and the expression of Sema4D protein in the supernatant was detected using an ELISA kit (Shanghai Yuanmu Biotechnology Co., Ltd.).

Row | SMILES | charge (zeta potential) [1] | particle diameter [1] | percentage of abnormal blood vessels in the total retinal area (proportion of new blood vessels) (OIR model mice [2]) | treatment effect on fundus angiogenesis compared with Sema4D neutralizing antibody (BMA-12, 1 μg) (OIR model mice [2]; 2 nmol intravitreal) | treatment effect on fundus angiogenesis, ranking among treatments (FIG. 4A) (OIR model mice [2]; 2 nmol intravitreal) | treatment effect on fundus vascular leakage compared with anti-Sema4D (1 μg) (OIR model mice [3]) | vascular leakage of the fundus (OIR model mice [3]) | inhibition of endothelial cell migration compared with Sema4D neutralizing antibody (BMA-12, 2 μg/μL) [4] | sSema4D-induced endothelial cell migration [4] | entry into the vitreous humor of mice [5] | sSema4D concentration over the time course (sSema4D) | sSema4D concentration (sSema4D; 24 h) | sSema4D concentration (sSema4D; 36 h) | effect on sSema4D concentration compared with FG (sSema4D; within the same action time)
1 | CCCCCCCCCCCCCCCC(=O)NC(Cc1ccccc1)C(=O)N[C@@H](Cc1ccccc1)C(=O)N[C@H](C(=O)N[C@@H](CC(C)C)C(=O)N[C@@H](CCCCN)C(=O)N[C@@H](CCCCN)C(=O)N[C@@H](CCC(N)=O)C(=O)N[C@@H](CCCCN)C(=O)N[C@@H](CCCNC(=N)N)C(=O)N1CCC[C@H]1C(=O)N[C@@H](CCCNC(=N)N)C(=O)N[C@@H](Cc1c[nH]cn1)C(=O)O)C(C)C (stereo in doubt) [FH, hexadecanoyl-FFVLK-KQKRPRH] | +40.4 mV | 54.43±2.8 nm | reduce the percentage of abnormal blood vessels in the total retinal area | comparable | the best | comparable | can inhibit vascular leakage of the fundus | more effective | significantly inhibit | entered the vitreous humor | can sustainably reduce the concentration of sSema4D | can reduce the sSema4D concentration | can still reduce the sSema4D concentration | better than that of FG
2 | CCCCCCCCCCCCCCCC(=O)NC(Cc1ccccc1)C(=O)N[C@@H](Cc1ccccc1)C(=O)N[C@H](C(=O)N[C@@H](CC(C)C)C(=O)N[C@@H](CCCCN)C(=O)N[C@@H](CCCCN)C(=O)N[C@@H](CC(N)=O)C(=O)N[C@@H](CCCCN)C(=O)N[C@@H](C)C(=O)N[C@@H](C)C(=O)N[C@@H](CCCCN)C(=O)NCC(=O)O)C(C)C (stereo partly drawn) [FG] (Palmitoyl-[ξF]FVLKKNKAAKG-OH) | +44.8 mV | 57.67±2.6 nm | reduce the percentage of abnormal blood vessels in the total retinal area | comparable |  | comparable | can inhibit vascular leakage of the fundus | more effective | significantly inhibit | entered the vitreous humor | can sustainably reduce the concentration of sSema4D |  |  | 
